# Values joined by “and” are separate entries in the source; they are usually repeats but may differ in a detail not shown here. Identical values can stand only once. Counter-ions that a name gives are not always drawn. Like-named read-outs stand apart in the source and are kept apart here.
# Assays:
# [1] = tested on: Xanthomonas oryzae pv. oryzae (Xoo); assay: microbe, parasite or virus in culture; assay type: cell-based; settings: for EC50 / inhibition at 20 µg/mL / inhibition at 100 µg/mL: Xanthomonas oryzae; for EC50: read-out: EC50 for inhibition of Xoo growth; for inhibition at 20 µg/mL / inhibition at 100 µg/mL: read-out: Inhibition (%) of Xoo growth
# [2] = tested on: Xanthomonas oryzae pv. oryzae (Xoo); assay: microbe, parasite or virus in culture; assay type: cell-based; settings: for MIC: Xanthomonas oryzae
# [3] = target: T1, recombinant XooFtsZ GTPase (Xanthomonas oryzae pv. oryzae, UniProt A0ACG7R862); assay: biochemical; settings: for inhibition at 100 µM / inhibition at 200 µM: read-out: Inhibition Rate (%) of XooFtsZ GTPase activity
# XooFtsZ [4] = assay type: binding, Xanthomonas oryzae pv. oryzae; settings: pH 7.4
# Xoo cells = assay type: cell-based, Xanthomonas oryzae pv. oryzae; set-up: average Xoo cell length: unit not given here; settings: TEM
# [5] = tested on: rice bacterial leaf blight infected by Xoo; assay type: in vivo; set-up: curative control efficiency against rice bacterial leaf blight: dose or concentration left out as unconfirmed
# XooFtsZ [6] = assay type: biochemical, Xanthomonas oryzae pv. oryzae; settings: TEM, 20 μM XooFtsZ, 100 and 200 μM compound
# rice plants = settings: in vivo
# [7] = tested on: human non-small cell lung cancer cell line (A549)
# in vitro = settings: rat
# [8] = target: T1, recombinant XooFtsZ GTPase; settings: read-out: IC50 XooFtsZ GTPase activity; cited from earlier work
# [9] = tested on: rice bacterial leaf blight infected by Xoo; settings: in vivo; cited from earlier work
# [10] = read-out: MIC against Xoo, in vitro
structure (smiles),measurement,setting,value
COc1cc(C2c3cc4c(cc3C(O)C3COC(=O)C23)OCO4)cc(OC)c1OCC1CO1 (stereo not shown) [A1],EC50,[1],> 200 µg/mL
same,inhibition at 20 µg/mL,[1],10.6 ± 0.9%
same,inhibition at 100 µg/mL,[1],18.3 ± 2.15%
same,MIC,[2]; [10],> 400 µg/mL
CCC(CC)C(=O)Oc1c(OC)cc(C2c3cc4c(cc3C(O)C3COC(=O)C23)OCO4)cc1OC (stereo not shown) [B1],EC50,[1],> 200 µg/mL
same,inhibition at 20 µg/mL,[1],5.33 ± 1.13%
same,inhibition at 100 µg/mL,[1],17.4 ± 6%
same,MIC,[2]; [10],> 400 µg/mL
CCCCC(CC)C(=O)Oc1c(OC)cc(C2c3cc4c(cc3C(O)C3COC(=O)C23)OCO4)cc1OC (stereo not shown) [B2],EC50,[1],153 ± 9.2 µg/mL
same,inhibition at 20 µg/mL,[1],7.3 ± 2.2%
same,inhibition at 100 µg/mL,[1],44.2 ± 3.2%
same,IC50,[3],159 ± 16.7 µM
same,inhibition at 100 µM,[3],48.6 ± 4.1%
same,inhibition at 200 µM,[3],54.8 ± 5.2%
same,Stern–Volmer quenching constant Kq,"XooFtsZ [4]; 10 μM XooFtsZ, 25 °C",3.845 × 10^11 M^−1 S^−1
same,Stern–Volmer quenching constant Ksv,"XooFtsZ [4]; 10 μM XooFtsZ, 25 °C",3845 M⁻¹
same,average Xoo cell length,"Xoo cells; 100 mg L^−1, 12 h",4.03 ± 2.20
same,average Xoo cell length,"Xoo cells; 100 mg L^−1, 24 h",5.86 ± 3.23
same,curative control efficiency against rice bacterial leaf blight,[5]; pot experiments,54.9%
same,protective control efficiency against rice bacterial leaf blight,[5]; pot experiments,48.4%
same,effect on XooFtsZ self-assembly,XooFtsZ [6],fewer single-stranded protofilaments and an increase in disordered and disorganized protein aggregation
same,phytotoxicity to rice plants,rice plants,non-toxic
same,cytotoxicity (comparison),[7],more cytotoxic than either DMEP or gefitinib
same,IC50,in vitro,60.8 µM
COc1cc(C2c3cc4c(cc3C(O)C3COC(=O)C23)OCO4)cc(OC)c1OS(=O)(=O)c1ccc(C)cc1 (stereo not shown) [B3],EC50,[1],> 200 µg/mL
same,inhibition at 20 µg/mL,[1],4.33 ± 0.8%
same,inhibition at 100 µg/mL,[1],10.2 ± 1.2%
same,MIC,[2]; [10],> 400 µg/mL
"S=c1[nH]nc(NCNc2n[nH]c(=S)s2)s1 [BT, bismerthiazol]",Inhibition (%) of Xoo growth,[1]; 20 mg L^−1,30.0 ± 2.20%
same,Inhibition (%) of Xoo growth,[1]; 100 mg L^−1,92.7 ± 1.70%
same,EC50 for inhibition of Xoo growth,[1]; in vitro,36.3 ± 2.50 µg/mL
same,MIC against Xoo,[2]; in vitro,50 µg/mL
"COc1ccc2cc3[n+](cc2c1OC)CCc1cc2c(cc1-3)OCO2 [Berberine, Berberine hydrochloride]",IC50,[3],225 ± 18.5 µM
same,inhibition at 100 µM,[3],34.1 ± 2.6%
same,inhibition at 200 µM,[3],48.7 ± 4.1%
same,Stern–Volmer quenching constant Kq,"XooFtsZ [4]; 10 μM XooFtsZ, 25 °C",1.789 × 10^12 M^−1 S^−1
same,Stern–Volmer quenching constant Ksv,"XooFtsZ [4]; 10 μM XooFtsZ, 25 °C",17890 M⁻¹
"COc1cc(C2c3cc4c(cc3C(O)C3COC(=O)C23)OCO4)cc(OC)c1O (stereo not shown) [DMEOP, 4′-demethylpodophyllotoxin]",EC50 for inhibition of Xoo growth,[1],>200 µg/mL
same,MIC against Xoo,[2],>400 µg/mL
same,Stern–Volmer quenching constant Kq,XooFtsZ [4],1.757 × 10^11 M^−1 S^−1
same,Stern–Volmer quenching constant Ksv,XooFtsZ [4],1757 M⁻¹
"COc1cc([C@@H]2c3cc4c(cc3[C@@H](O)[C@H]3COC(=O)[C@H]23)OCO4)cc(OC)c1O [DMEP, 4′-demethylepipodophyllotoxin]",EC50 for inhibition of Xoo growth,[1],39.7 µg/mL and 38.7 µg/mL
same,MIC against Xoo,[2],50 µg/mL
same,Stern–Volmer quenching constant Kq,XooFtsZ [4],7.593 × 10^11 M^−1 S^−1
same,Stern–Volmer quenching constant Ksv,XooFtsZ [4],7593 M⁻¹
same,IC50,[8],279 µM and 278 µM
same,curative control efficiency against rice bacterial leaf blight,[9],50.0%
same,protective control efficiency against rice bacterial leaf blight,[9],46.8%
COc1cc([C@@H]2c3cc4c(cc3C[C@H]3COC(=O)[C@@H]32)OCO4)cc(OC)c1OC [Deoxypodophyllotoxin],EC50,[1],> 200 µg/mL
same,inhibition at 20 µg/mL,[1],12.2 ± 4.8%
same,inhibition at 100 µg/mL,[1],10.3 ± 3.5%
same,MIC,[2]; [10],> 400 µg/mL
same,Stern–Volmer quenching constant Kq,"XooFtsZ [4]; 10 μM XooFtsZ, 25 °C",2.276 × 10^11 M^−1 S^−1
same,Stern–Volmer quenching constant Ksv,"XooFtsZ [4]; 10 μM XooFtsZ, 25 °C",2276 M⁻¹
COc1cc([C@@H]2c3cc4c(cc3[C@@H](O[C@@H]3O[C@@H]5CO[C@@H](C)O[C@H]5[C@H](O)[C@H]3O)[C@H]3COC(=O)[C@H]23)OCO4)cc(OC)c1O [Etoposide],EC50,[1],> 200 µg/mL
same,inhibition at 100 µg/mL,[1],18.8 ± 9.6%
same,MIC,[2]; [10],> 400 µg/mL
same,Stern–Volmer quenching constant Kq,"XooFtsZ [4]; 10 μM XooFtsZ, 25 °C",2.396 × 10^11 M^−1 S^−1
same,Stern–Volmer quenching constant Ksv,"XooFtsZ [4]; 10 μM XooFtsZ, 25 °C",2396 M⁻¹
same,effect on Xoo cell morphology,"Xoo cells; 100 mg L^−1, 24 h",induced cellular elongation
COc1cc([C@@H]2c3cc4c(cc3[C@H](O)[C@H]3COC(=O)[C@@H]23)OCO4)cc(OC)c1OC [Picropodophyllotoxin],EC50,[1],> 200 µg/mL
same,MIC,[2]; read-out: MIC against Xoo,> 400 µg/mL
same,Stern–Volmer quenching constant Kq,XooFtsZ [4],3.603 × 10^11 M^−1 S^−1
same,Stern–Volmer quenching constant Ksv,XooFtsZ [4],3603 M⁻¹
COc1cc([C@@H]2c3cc4c(cc3[C@H](O)[C@H]3COC(=O)[C@H]23)OCO4)cc(OC)c1OC [Podophyllotoxin],EC50,[1],> 200 µg/mL
same,MIC,[2]; read-out: MIC against Xoo,> 400 µg/mL
same,Stern–Volmer quenching constant Kq,XooFtsZ [4],2.203 × 10^11 M^−1 S^−1
same,Stern–Volmer quenching constant Ksv,XooFtsZ [4],2203 M⁻¹
"Nc1nnc([S-])s1.Nc1nnc([S-])s1.[Cu+2] [TC, Thiodiazole copper]",curative control efficiency against rice bacterial leaf blight,[5]; in vivo,31.2%
same,protective control efficiency against rice bacterial leaf blight,[5]; in vivo,30.4%
COc1cc([C@@H]2c3cc4c(cc3[C@@H](O[C@@H]3O[C@@H]5CO[C@@H](c6cccs6)O[C@H]5[C@H](O)[C@H]3O)[C@H]3COC(=O)[C@H]23)OCO4)cc(OC)c1O [Teniposide],EC50,[1],> 200 µg/mL
same,inhibition at 100 µg/mL,[1],20.3 ± 9.21%
same,MIC,[2]; [10],> 400 µg/mL
same,Stern–Volmer quenching constant Kq,"XooFtsZ [4]; 10 μM XooFtsZ, 25 °C",2.920 × 10^11 M^−1 S^−1
same,Stern–Volmer quenching constant Ksv,"XooFtsZ [4]; 10 μM XooFtsZ, 25 °C",2920 M⁻¹
same,effect on Xoo cell morphology,"Xoo cells; 100 mg L^−1, 24 h",induced cellular elongation
